From patent publication US20170007709A1, “GLYCOAMINO ACID AND USE THEREOF” (AJINOMOTO CO., INC., priority 2014, published 2017)

Assays:
[1] = Solubility evaluation in water at 25° C.; assay type: physicochemical; details: for solubility, amino acid-converted weight concentration / solubility, weight concentration: water, stirred for 2 days
Experimental: The concentration was measured by HPLC. […] Similarly, the solubility of DOPA and DOPA-Glc was measured. […] Furthermore, the solubility of DOPA and DOPA-Glc was similarly measured using water (0.5 ml) in a thermostatic tank at 25° C. […] Therefore, the samples were diluted, and solubility was measured by HPLC.

[2] = Dissolution rate evaluation in water; assay type: physicochemical; details: 25 ml stirring water, inside temperature 32° C., n=1
Experimental: Val, Ile, Leu or glycoamino acid corresponding thereto (Val-Glc, Ile-Glc, Leu-Glc) were each added to stirring water (25 ml, inside temperature 32° C.) in a hot-water bath at 35° C., and the dissolution rate was measured. As compared to Val, Ile and Leu, Val-Glc, Ile-Glc and Leu-Glc were dissolved 4-19 times faster in equal weight and 2-19 times faster in equimolar amount.

[3] = Animal evaluation: blood amino acid concentration after oral administration; assay type: in vivo; details: male SD rats fasted overnight
Experimental: Leu, Val, Ile and glycoamino acid corresponding thereto (Leu-Glc, Val-Glc, Ile-Glc) were each dissolved or suspended in distilled water to a given dose and orally administered to male 13-week-old SD rats (Japan Charles River) that was fasted overnight. Blood samples were collected from the rat tail vein before administration and 15 min, 30 min, 60 min, 90 min, 120 min after administration and partly 180 min and 300 min after administration. After separation into plasma, protein elimination and ultrafiltration with 15% sulfosalicylic acid solution was performed. The filtrate was mixed with 0.02 mmol/L hydrochloric acid at 1:1, analyzed by an amino acid analyzer (JEOL Ltd.), and blood amino acid concentration was determined.

pronase = assay: Enzyme evaluation: liberation of leucine by pronase; assay type: in vitro ADME; details: 37° C., 30 min later
Experimental: Leu-Glc (10 mg) was dissolved in water (1 ml), pronase (0.1% aqueous solution, 100 μl) was added, and the mixture was stirred in a hot-water bath at 37° C. The mixture was diluted 10-fold with 1% aqueous phosphoric acid solution, and analyzed by HPLC.
HPLC analysis conditions were as described below.
column: […] MG (4.6×250 mm, 5 μm) column temperature: 40° C. mobile phase: A: 100 mM KH2PO4, 5 mM sodium 1-octanesulfonate (pH 2.2) B: acetonitrile eluent: A/B=9/1 isocratic flow rate: 1.5 ml/min detection: photodiode array detector measurement wavelength 210 nm injection volume: 10 μL

Compound	solubility, amino acid-converted weight concentration ([1]; HPLC)	solubility, weight concentration ([1]; HPLC)	dissolution rate, amino acid (XXX) ([2]; equal weight (Table 3))	dissolution rate, amino acid (XXX) ([2]; equimolar quantity (Table 2))	dissolution rate, glycoamino acid (XXX-Glc) ([2]; equal weight (Table 3))	dissolution rate, glycoamino acid (XXX-Glc) ([2]; equimolar quantity (Table 2))	other results
N[C@@H](Cc1ccc(O)c(O)c1)C(=O)O [DOPA, 3,4-dihydroxy-L-phenylalanine, reference compound]	0.31 g/100 g water	0.31 g/100 g water					
N[C@@H](Cc1ccc(O)c(O)c1)C(=O)N[C@@H]1O[C@H](CO)[C@@H](O)[C@H](O)[C@H]1O [DOPA-Glc, N-(3,4-dihydroxy-L-phenylalanyl)-β-D-glucopyranosylamine]	>215 g/100 g water	>392 g/100 g water					solubility as compared to that of DOPA ([1]; water 0.5 ml, samples diluted, HPLC): not less than 690 fold; solubility as compared to the corresponding amino acid ([1]; water 1 ml): not less than 135 times; weight concentration at which still dissolved ([1]; water 1 ml): ≥ 93.8 g/100 g water
CC[C@H](C)[C@H](N)C(=O)O [Ile, L-isoleucine, reference compound]	4.1 g/100 g water	4.1 g/100 g water	(285 sec)	(280 sec)			
CC[C@H](C)[C@H](N)C(=O)N[C@@H]1O[C@H](CO)[C@@H](O)[C@H](O)[C@H]1O [Ile-Glc, N-(L-isoleucyl)-β-D-glucopyranosylamine]	14.7 g/100 g water	32.8 g/100 g water			15 s	15 s	blood Ile concentration [3]: increased
CC(C)C[C@H](N)C(=O)O [Leu, L-leucine, reference compound]	2.4 g/100 g water	2.4 g/100 g water	(330 sec)	(191 sec)			
CC(C)C[C@H](N)C(=O)N[C@@H]1O[C@H](CO)[C@@H](O)[C@H](O)[C@H]1O [Leu-Glc, N-(L-leucyl)-β-D-glucopyranosylamine]	28.3 g/100 g water	63 g/100 g water			21 s	21 s	blood Leu concentration [3]: increased; remaining Leu-Glc (pronase): almost disappeared
N[C@@H](Cc1ccc(O)cc1)C(=O)N[C@@H]1O[C@H](CO)[C@@H](O)[C@H](O)[C@H]1O [Tyr-Glc, N-(L-tyrosyl)-β-D-glucopyranosylamine]	8.92 g/100 g water	16.8 g/100 g water					solubility as compared to the corresponding amino acid ([1]; water 1 ml): 178 times
CC(C)[C@H](N)C(=O)O [Val, L-valine, reference compound]	5.8 g/100 g water	5.8 g/100 g water	(139 sec)	(80 sec)			
CC(C)[C@H](N)C(=O)N[C@@H]1O[C@H](CO)[C@@H](O)[C@H](O)[C@H]1O [Val-Glc, N-(L-valyl)-β-D-glucopyranosylamine]	14.1 g/100 g water	33.5 g/100 g water			33 s	33 s	blood Val concentration [3]: increased
